Data reported in ChEMBL document CHEMBL5291721, “A preclinical secondary pharmacology resource illuminates target-adverse drug reaction associations of marketed drugs” (Nat Commun, 2023).

Columns and labels:
[1] = target: Prostaglandin G/H synthase 1 (Homo sapiens, UniProt P23219); assay type: functional
[2] = target: T1, Muscarinic acetylcholine receptor M1 (Homo sapiens, UniProt P11229); assay type: functional, cell-based
T1 sequence (P11229 whole entry): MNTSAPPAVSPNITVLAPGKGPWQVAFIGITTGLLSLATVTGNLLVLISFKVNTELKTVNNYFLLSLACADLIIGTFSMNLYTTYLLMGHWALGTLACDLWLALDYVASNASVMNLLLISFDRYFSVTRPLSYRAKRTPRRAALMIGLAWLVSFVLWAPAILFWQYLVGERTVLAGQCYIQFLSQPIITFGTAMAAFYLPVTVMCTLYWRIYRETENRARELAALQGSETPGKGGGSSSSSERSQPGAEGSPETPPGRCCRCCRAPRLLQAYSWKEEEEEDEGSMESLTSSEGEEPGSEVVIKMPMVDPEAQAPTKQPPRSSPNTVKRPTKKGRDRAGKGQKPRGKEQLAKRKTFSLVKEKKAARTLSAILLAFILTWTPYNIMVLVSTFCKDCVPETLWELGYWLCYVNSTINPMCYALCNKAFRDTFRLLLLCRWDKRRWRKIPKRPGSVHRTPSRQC

[3] = target: Sodium-dependent noradrenaline transporter (Homo sapiens, UniProt P23975)
[4] = target: T2, Thromboxane A2 receptor (Homo sapiens, UniProt P21731); assay type: functional, cell-based
T2 sequence (P21731 whole entry): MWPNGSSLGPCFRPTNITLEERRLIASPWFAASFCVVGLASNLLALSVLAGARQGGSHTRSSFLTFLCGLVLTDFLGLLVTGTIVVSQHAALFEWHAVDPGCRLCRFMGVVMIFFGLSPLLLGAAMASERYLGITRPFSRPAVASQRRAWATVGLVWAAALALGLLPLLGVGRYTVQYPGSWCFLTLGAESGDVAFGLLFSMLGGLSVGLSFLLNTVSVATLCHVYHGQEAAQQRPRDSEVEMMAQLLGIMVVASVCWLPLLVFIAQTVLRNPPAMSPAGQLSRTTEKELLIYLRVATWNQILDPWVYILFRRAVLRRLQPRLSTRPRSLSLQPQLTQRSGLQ

[5] = target: T3, Progesterone receptor (Homo sapiens, UniProt P06401)
T3 sequence (P06401 whole entry): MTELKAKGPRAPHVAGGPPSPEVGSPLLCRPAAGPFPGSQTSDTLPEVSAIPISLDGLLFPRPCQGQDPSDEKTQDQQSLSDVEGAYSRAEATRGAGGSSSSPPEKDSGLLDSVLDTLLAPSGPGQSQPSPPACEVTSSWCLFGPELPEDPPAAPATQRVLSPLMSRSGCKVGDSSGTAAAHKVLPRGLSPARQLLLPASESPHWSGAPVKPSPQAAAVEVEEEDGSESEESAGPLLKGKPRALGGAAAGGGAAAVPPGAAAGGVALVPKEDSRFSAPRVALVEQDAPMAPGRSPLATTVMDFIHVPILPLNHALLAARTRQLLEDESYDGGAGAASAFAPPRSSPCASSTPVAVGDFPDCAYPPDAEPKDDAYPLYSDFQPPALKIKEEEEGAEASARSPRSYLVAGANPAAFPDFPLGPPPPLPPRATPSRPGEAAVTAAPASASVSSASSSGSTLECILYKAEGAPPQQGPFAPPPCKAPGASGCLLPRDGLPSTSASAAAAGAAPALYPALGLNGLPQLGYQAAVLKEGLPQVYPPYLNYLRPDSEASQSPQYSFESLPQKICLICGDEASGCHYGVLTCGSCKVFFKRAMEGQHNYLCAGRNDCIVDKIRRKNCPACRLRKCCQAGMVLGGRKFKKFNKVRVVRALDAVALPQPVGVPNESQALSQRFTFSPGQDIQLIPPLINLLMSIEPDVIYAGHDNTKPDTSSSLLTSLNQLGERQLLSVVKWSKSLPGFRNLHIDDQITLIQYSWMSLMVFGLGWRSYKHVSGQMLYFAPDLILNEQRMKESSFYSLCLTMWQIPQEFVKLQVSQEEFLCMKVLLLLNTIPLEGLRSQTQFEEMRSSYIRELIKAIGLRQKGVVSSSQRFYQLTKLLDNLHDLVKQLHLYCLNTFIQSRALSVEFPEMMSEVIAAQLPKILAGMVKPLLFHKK

[6] = target: T4, Alpha-1A adrenergic receptor (Homo sapiens, UniProt P35348); assay type: functional, cell-based
T4 sequence (P35348 whole entry): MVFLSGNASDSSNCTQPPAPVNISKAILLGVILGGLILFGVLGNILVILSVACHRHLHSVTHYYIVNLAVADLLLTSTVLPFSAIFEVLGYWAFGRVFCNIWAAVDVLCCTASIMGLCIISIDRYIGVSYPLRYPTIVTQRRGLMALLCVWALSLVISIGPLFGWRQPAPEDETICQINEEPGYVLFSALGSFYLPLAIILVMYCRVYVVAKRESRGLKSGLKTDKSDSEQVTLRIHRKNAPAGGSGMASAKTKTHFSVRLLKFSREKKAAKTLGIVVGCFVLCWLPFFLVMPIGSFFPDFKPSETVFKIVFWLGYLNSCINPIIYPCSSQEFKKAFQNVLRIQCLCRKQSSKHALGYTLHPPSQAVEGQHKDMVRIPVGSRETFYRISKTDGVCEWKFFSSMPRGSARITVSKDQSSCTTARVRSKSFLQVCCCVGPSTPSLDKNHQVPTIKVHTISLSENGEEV

[7] = target: D(1A) dopamine receptor (Homo sapiens, UniProt P21728)
[8] = target: Histamine H3 receptor (Homo sapiens, UniProt Q9Y5N1)
[9] = target: Acetylcholinesterase (Homo sapiens, UniProt P22303); assay type: functional
[10] = target: T5, Adenosine receptor A3 (Homo sapiens, UniProt P0DMS8)
T5 sequence (P0DMS8 whole entry): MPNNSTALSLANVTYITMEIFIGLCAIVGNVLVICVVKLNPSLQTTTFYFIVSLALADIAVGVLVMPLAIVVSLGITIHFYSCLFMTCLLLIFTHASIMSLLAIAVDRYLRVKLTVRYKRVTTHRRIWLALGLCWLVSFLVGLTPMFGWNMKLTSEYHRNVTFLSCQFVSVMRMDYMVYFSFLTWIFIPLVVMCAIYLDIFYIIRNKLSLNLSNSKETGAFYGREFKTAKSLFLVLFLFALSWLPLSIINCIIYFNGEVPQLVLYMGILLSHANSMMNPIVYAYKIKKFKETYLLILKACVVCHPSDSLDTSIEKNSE

[11] = target: Mu-type opioid receptor (Homo sapiens, UniProt P35372)
[12] = target: Prothrombin (Homo sapiens, UniProt P00734); assay type: functional
Further: assay procedure not described here.

Acetylcholinesterase, sequence (P22303 whole entry): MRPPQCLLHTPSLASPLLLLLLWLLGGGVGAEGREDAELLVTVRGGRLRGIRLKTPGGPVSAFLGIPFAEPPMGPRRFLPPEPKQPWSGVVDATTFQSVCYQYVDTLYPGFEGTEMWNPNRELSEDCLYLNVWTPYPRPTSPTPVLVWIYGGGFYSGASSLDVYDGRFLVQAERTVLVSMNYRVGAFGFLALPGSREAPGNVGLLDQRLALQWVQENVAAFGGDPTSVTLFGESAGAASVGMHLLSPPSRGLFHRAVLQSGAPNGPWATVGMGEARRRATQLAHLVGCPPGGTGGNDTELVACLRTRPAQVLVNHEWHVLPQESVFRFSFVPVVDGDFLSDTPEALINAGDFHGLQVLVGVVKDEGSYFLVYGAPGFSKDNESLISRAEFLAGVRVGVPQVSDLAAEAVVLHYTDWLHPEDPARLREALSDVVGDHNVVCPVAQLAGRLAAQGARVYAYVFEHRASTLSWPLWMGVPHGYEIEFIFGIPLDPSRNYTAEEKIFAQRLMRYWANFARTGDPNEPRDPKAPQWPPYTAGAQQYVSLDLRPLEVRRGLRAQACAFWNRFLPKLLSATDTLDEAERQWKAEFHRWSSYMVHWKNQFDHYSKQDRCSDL
Prostaglandin G/H synthase 1, sequence (P23219 whole entry): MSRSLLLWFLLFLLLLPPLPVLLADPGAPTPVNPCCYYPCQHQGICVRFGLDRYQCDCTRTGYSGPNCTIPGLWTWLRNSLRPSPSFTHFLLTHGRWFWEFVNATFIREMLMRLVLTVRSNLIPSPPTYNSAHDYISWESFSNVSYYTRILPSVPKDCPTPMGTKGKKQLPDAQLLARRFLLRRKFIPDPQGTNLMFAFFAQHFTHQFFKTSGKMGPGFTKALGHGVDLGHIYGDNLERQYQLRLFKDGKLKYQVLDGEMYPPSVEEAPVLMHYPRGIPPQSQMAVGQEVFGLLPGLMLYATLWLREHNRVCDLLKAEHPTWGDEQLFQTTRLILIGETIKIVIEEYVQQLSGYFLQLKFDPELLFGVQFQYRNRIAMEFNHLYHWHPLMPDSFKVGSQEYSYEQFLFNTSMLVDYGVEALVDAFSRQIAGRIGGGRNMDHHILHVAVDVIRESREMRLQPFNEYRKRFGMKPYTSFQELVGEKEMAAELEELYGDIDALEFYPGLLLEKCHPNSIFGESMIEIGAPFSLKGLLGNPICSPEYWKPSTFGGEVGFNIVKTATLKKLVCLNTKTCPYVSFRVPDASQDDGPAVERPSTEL
Sodium-dependent noradrenaline transporter, sequence (P23975 whole entry): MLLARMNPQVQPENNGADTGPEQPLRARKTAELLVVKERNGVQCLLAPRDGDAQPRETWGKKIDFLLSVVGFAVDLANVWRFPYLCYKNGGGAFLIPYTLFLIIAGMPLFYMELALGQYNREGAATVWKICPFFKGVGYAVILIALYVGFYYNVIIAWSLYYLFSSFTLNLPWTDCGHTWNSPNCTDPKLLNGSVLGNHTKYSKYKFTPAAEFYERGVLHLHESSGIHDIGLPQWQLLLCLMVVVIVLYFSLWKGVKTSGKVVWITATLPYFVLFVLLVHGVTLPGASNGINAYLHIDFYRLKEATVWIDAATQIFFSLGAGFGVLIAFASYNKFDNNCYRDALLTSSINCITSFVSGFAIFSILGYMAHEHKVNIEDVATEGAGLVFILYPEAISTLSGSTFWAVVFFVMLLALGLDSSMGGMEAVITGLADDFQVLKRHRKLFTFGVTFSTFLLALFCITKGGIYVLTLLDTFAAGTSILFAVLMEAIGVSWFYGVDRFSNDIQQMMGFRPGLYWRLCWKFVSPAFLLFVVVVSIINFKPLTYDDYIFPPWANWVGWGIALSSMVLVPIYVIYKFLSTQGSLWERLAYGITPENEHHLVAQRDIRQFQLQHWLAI
Histamine H3 receptor, sequence (Q9Y5N1 whole entry): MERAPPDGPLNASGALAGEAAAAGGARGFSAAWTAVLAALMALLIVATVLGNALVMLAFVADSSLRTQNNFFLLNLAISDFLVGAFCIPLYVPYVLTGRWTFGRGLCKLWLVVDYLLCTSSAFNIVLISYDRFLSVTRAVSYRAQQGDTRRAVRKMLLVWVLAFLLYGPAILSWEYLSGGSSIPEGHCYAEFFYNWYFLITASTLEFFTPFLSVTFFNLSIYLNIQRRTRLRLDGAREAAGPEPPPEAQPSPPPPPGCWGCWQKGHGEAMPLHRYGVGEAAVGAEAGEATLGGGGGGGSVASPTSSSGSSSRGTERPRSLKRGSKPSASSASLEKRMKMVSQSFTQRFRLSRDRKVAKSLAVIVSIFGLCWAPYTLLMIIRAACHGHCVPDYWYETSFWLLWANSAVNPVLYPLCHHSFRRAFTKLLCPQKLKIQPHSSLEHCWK
D(1A) dopamine receptor, sequence (P21728 whole entry): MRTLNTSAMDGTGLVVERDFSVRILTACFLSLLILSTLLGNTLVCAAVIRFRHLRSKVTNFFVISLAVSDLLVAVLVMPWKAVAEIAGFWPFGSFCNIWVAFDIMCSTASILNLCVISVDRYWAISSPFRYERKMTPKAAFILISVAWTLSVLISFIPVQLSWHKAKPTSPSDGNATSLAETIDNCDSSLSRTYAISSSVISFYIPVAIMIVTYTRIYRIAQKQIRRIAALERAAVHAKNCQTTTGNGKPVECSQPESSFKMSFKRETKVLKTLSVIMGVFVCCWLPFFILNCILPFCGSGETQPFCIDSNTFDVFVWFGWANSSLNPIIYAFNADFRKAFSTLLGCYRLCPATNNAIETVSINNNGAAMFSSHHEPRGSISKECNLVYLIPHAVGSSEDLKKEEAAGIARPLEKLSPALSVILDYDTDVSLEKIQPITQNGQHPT
Mu-type opioid receptor, sequence (P35372 whole entry): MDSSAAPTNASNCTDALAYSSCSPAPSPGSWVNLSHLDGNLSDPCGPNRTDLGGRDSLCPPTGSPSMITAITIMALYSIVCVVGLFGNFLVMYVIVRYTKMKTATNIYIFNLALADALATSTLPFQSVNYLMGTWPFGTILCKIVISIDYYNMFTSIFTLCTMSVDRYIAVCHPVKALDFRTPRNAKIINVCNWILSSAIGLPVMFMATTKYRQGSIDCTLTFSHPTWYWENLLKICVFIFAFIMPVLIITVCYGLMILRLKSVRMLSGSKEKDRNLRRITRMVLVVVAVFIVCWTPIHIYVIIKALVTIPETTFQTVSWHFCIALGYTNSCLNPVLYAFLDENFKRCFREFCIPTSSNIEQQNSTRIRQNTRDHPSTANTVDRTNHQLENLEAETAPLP

Compound | AC50 [1] [µM] | AC50 [2] [µM] | AC50 [3] [µM] | AC50 [4] [µM] | AC50 [5] [µM] | AC50 [6] [µM] | AC50 [7] [µM] | AC50 [8] [µM] | AC50 [9] [µM] | AC50 [10] [µM] | AC50 [11] [µM] | AC50 [12] [µM]
CCOc1ccc(Cc2cc([C@@H]3O[C@H](CO)[C@@H](O)[C@H](O)[C@H]3O)ccc2Cl)cc1 [DAPAGLIFLOZIN] | > 30 | > 30 | > 30 | > 30 | > 30 | > 30 | > 30 | > 30 | > 30 | > 30 | > 30 | > 30
CC(=O)OCC(=O)[C@@]1(O)CC[C@H]2[C@@H]3CCC4=CC(=O)C=C[C@]4(C)[C@@]3(Cl)[C@@H](Cl)C[C@@]21C [DICHLORISONE ACETATE] | > 30 | > 30 | > 30 | > 30 | 0.173 | > 30 | > 30 | > 30 | > 30 | > 30 | > 30 | > 30
CC(C)C[C@H]1C(=O)N2CCC[C@H]2[C@]2(O)O[C@](NC(=O)[C@@H]3C[C@@H]4c5cccc6[nH]cc(c56)C[C@H]4N(C)C3)(C(C)C)C(=O)N12 [DIHYDROERGOCRYPTINE] | 27.4 | > 30 | > 30 | > 30 | > 30 | 5.77 | 0.597 | > 30 | > 30 | > 30 | 10.3 | > 30
CCN(CC)CCOC(=O)C(c1ccccc1)C1CCCCC1 (stereo not drawn) [DROFENINE] | > 30 | 0.0078 | 13 | > 30 | > 30 | > 30 | 13.7 | > 30 | > 30 | > 30 | 25.3 | > 30
COc1ccc(C(=O)Nc2ccccc2CCC2CCCCN2C)cc1 (stereo not drawn) [ENCAINIDE] | > 30 | > 30 | > 30 | > 30 | > 30 | > 30 | 26.9 | > 30 | > 30 | > 30 | > 30 | > 30
NC1=NCC2c3ccccc3Cc3ccccc3N12 (stereo not drawn) [EPINASTINE] | > 30 | > 30 | 4.58 | > 30 | > 30 | > 30 | 0.125 | > 30 | > 30 | > 30 | 17.4 | > 30
CC(=O)Oc1ccc2c(c1)CC[C@@H]1[C@@H]2CC[C@]2(C)[C@@H](O)CC[C@@H]12 [ESTRADIOL ACETATE] | > 3 | 7.24 | > 30 | > 30 | 0.209 | > 30 | > 30 | > 30 | > 30 | 10.5 | 9.04 | > 30
CCOc1ccccc1C(N)=O [ETHENZAMIDE] | > 30 | > 30 | > 30 | > 30 | > 30 | > 30 | > 30 | > 30 | > 30 | > 30 | > 30 | > 30
CCOC(=O)/C=C1\SC(N2CCCCC2)C(=O)N1C (stereo not drawn) [ETOZOLIN] | > 30 | > 30 | > 30 | > 30 | > 30 | > 30 | > 30 | > 30 | > 30 | > 30 | > 30 | > 30
CCCCOC(=O)C(=O)[C@H]1[C@H](C)C[C@H]2[C@@H]3C[C@H](F)C4=CC(=O)C=C[C@]4(C)[C@H]3[C@@H](O)C[C@@]21C [FLUOCORTIN BUTYL] | > 30 | 19.8 | 29.5 | > 30 | 0.711 | > 30 | > 30 | > 30 | > 30 | 7.82 | > 30 | > 30
N[C@H]1C(O)O[C@H](CO)[C@@H](O)[C@@H]1O (stereo partly drawn) [GLUCOSAMINE] | > 30 | > 30 | > 30 | > 30 | > 30 | > 30 | > 30 | > 30 | > 30 | > 30 | > 30 | > 30
CCN(CC)CCNc1ccc(CO)c2sc3ccccc3c(=O)c12 [HYCANTHONE] | > 30 | 17.6 | 11.9 | > 30 | > 30 | > 30 | > 30 | 2.14 | > 30 | > 30 | 23 | > 30
CC[C@H]1CN2CC[C@H]1C[C@H]2[C@H](O)c1ccnc2ccc(OC)cc12 [HYDROQUININE] | > 30 | > 30 | > 30 | > 30 | > 30 | > 30 | > 30 | > 30 | > 30 | > 30 | 8.13 | > 30
Cc1cc(OP(=O)(O)O)c2ccccc2c1OP(=O)(O)O [MENADIOL SODIUM DIPHOSPHATE] | > 30 | > 30 | > 30 | > 30 | > 30 | > 30 | > 30 | > 30 | > 30 | > 30 | > 30 | > 30
